Assay results from patent US9200005B2, “Inhibitor compounds of phosphodiesterase type 10A” (AbbVie Deutschland GmbH & Co. KG, priority 2013, dated 2015).

What was measured:
rats [1] = conditions: cited from earlier work
rats [2] = conditions: amphetamine (WO 03/093499); cited from earlier work
rats [3] = conditions: PCP (WO 03/093499); cited from earlier work
PDE10A = PDE10A (UniProt Q9Y233); assay: Measurement of PDE activity (HTRF cAMP kit, recombinant PDE10A); type: biochemical, human, rat and mouse; conditions: substrate 20 nM, 60 minutes at 29° C.
[4] = Determination of the microsomal half-life / microsomal clearance, rat liver microsomes; type: in vitro ADME; conditions: 0.5 μM test substance, 0.25 mg of microsomal protein/mL, NADPH, 37° C.
Method in brief: (§1)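 Compound (0.5 μM) was preincubated 5 min at 37 °C with rat or human liver microsomes (0.25 mg protein/mL) in 0.05 M phosphate pH 7.4, and NADPH (1 mg/mL) was then added. Samples taken at 0-30 min and quenched with acetonitrile were analysed by MS/MS. T½ was derived assuming first-order decay, and clearance […] was calculated from T½ and protein content.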

[5] = Determination of the microsomal half-life / microsomal clearance, human liver microsomes; type: in vitro ADME; conditions: 0.5 μM test substance, 0.25 mg of microsomal protein/mL, NADPH, 37° C.
Method in brief: as §1

| Structure (SMILES) | IC50 (PDE10A) | Rat mCl [4] | Human mCl [5] | catalepsy on its own (rats [1]; alone (WO 03/093499)) | cataleptic effect of the D2 receptor antagonist haloperidol (rats [1]; with haloperidol (WO 03/093499)) | reduction of amphetamine-induced hyperactivity (rats [2]) | hyperactivity in rats induced by PCP (rats [3]) |
| --- | --- | --- | --- | --- | --- | --- | --- |
| COc1ccc(Cc2nccc3cc(OC)c(OC)cc23)cc1OC [Papaverine, papaverine] |  |  |  | did not cause catalepsy | potentiated | insignificant | reduced |
| Cn1nc(OCc2cccc(OC(F)F)c2)c2scc(-c3ccncc3)c2c1=O [Example 76, 7-{[3-(difluoromethoxy)benzyl]oxy}-5-methyl-3-(pyridin-4-yl)thieno[2,3-d]pyridazin-4(5H)-one] | < 100 nM | ++ (++: <100 μl min^−1 mg^−1) | ++ (++: <100 μl min^−1 mg^−1) |  |  |  |  |
| Cn1nc(OCc2ccccc2)c2scc(-c3ccncc3)c2c1=O [Example 54, 7-(benzyloxy)-5-methyl-3-(pyridin-4-yl)thieno[2,3-d]pyridazin-4(5H)-one] | 100 to 200 nM | + (+: 100-220 μl min^−1 mg^−1) | ++ (++: <100 μl min^−1 mg^−1) |  |  |  |  |
| Cn1nc(OCc2ccccn2)c2scc(-c3ccncc3)c2c1=O [Example 55, 5-methyl-3-(pyridin-4-yl)-7-(pyridin-2-ylmethoxy)thieno[2,3-d]pyridazin-4(5H)-one] | 100 to 200 nM | + (+: 100-220 μl min^−1 mg^−1) | ++ (++: <100 μl min^−1 mg^−1) |  |  |  |  |
| Cn1nc(OCc2ccco2)c2scc(-c3ccncc3)c2c1=O [Example 52, 7-(furan-2-ylmethoxy)-5-methyl-3-(pyridin-4-yl)thieno[2,3-d]pyridazin-4(5H)-one] | 100 to 200 nM | + (+: 100-220 μl min^−1 mg^−1) | ++ (++: <100 μl min^−1 mg^−1) |  |  |  |  |
| Cn1nc(-c2ccncc2)c2scc(N3CCOCC3)c2c1=O [Example 3, 5-methyl-3-(morpholin-4-yl)-7-(pyridin-4-yl)thieno[2,3-d]pyridazin-4(5H)-one] | 200 to 500 nM | ++ (++: <100 μl min^−1 mg^−1) | ++ (++: <100 μl min^−1 mg^−1) |  |  |  |  |

Now from value to compound, other results behind:

| IC50 (PDE10A) | Rat mCl [4] | Human mCl [5] | Structure (SMILES) | catalepsy on its own (rats [1]; alone (WO 03/093499)) | cataleptic effect of the D2 receptor antagonist haloperidol (rats [1]; with haloperidol (WO 03/093499)) | reduction of amphetamine-induced hyperactivity (rats [2]) | hyperactivity in rats induced by PCP (rats [3]) |
| --- | --- | --- | --- | --- | --- | --- | --- |
| < 100 nM | ++ (++: <100 μl min^−1 mg^−1) | ++ (++: <100 μl min^−1 mg^−1) | COc1ccc(Oc2nn(C)c(=O)c3c(-c4ccncc4)csc23)cc1OC [Example 91, 7-(3,4-dimethoxyphenoxy)-5-methyl-3-(pyridin-4-yl)thieno[2,3-d]pyridazin-4(5H)-one] |  |  |  |  |
| < 100 nM | ++ (++: <100 μl min^−1 mg^−1) | ++ (++: <100 μl min^−1 mg^−1) | CCn1nc(-c2ccncc2)c2scc(-c3cncnc3)c2c1=O [Example 145, 5-ethyl-7-(pyridin-4-yl)-3-(pyrimidin-5-yl)thieno[2,3-d]pyridazin-4(5H)-one] |  |  |  |  |
| 100 to 200 nM | ++ (++: <100 μl min^−1 mg^−1) | + (+: 100-220 μl min^−1 mg^−1) | CCCn1nc(-c2ccncc2)c2scc(-c3ccncc3)c2c1=O [Example 139, 5-propyl-3,7-di(pyridin-4-yl)thieno[2,3-d]pyridazin-4(5H)-one] |  |  |  |  |
| 100 to 200 nM | ++ (++: <100 μl min^−1 mg^−1) | + (+: 100-220 μl min^−1 mg^−1) | Cn1nc(Oc2ccccc2C#N)c2scc(-c3ccncc3)c2c1=O.O=C(O)C(F)(F)F [Example 83, 2-{[5-methyl-4-oxo-3-(pyridin-4-yl)-4,5-dihydrothieno[2,3-d]pyridazin-7-yl]oxy}benzonitrile trifluoroacetate] |  |  |  |  |
| < 100 nM | ++ (++: <100 μl min^−1 mg^−1) | + (+: 100-220 μl min^−1 mg^−1) | COc1ccc(-c2nn(C)c(=O)c3c(-c4ccncc4)csc23)cc1 [Example 96, 7-(4-methoxyphenyl)-5-methyl-3-(pyridin-4-yl)thieno[2,3-d]pyridazin-4(5H)-one] |  |  |  |  |
| < 100 nM | ++ (++: <100 μl min^−1 mg^−1) | ++ (++: <100 μl min^−1 mg^−1) | O=c1c2c(-c3ccncc3)csc2c(-c2ccncc2)nn1CC(F)(F)F [Example 131, 3,7-di(pyridin-4-yl)-5-(2,2,2-trifluoroethyl)thieno[2,3-d]pyridazin-4(5H)-one] |  |  |  |  |
| 100 to 200 nM | ++ (++: <100 μl min^−1 mg^−1) | ++ (++: <100 μl min^−1 mg^−1) | Cn1nc(-c2ccncc2)c2scc(-c3ccncc3)c2c1=O [Example 130, 5-methyl-3,7-di(pyridin-4-yl)thieno[2,3-d]pyridazin-4(5H)-one] |  |  |  |  |
| 200 to 500 nM | ++ (++: <100 μl min^−1 mg^−1) | ++ (++: <100 μl min^−1 mg^−1) | Cn1nc(Oc2ccccc2)c2scc(-c3ccncc3)c2c1=O [Example 81, 5-methyl-7-phenoxy-3-(pyridin-4-yl)thieno[2,3-d]pyridazin-4(5H)-one] |  |  |  |  |
